Inconclusive results and toxic doses are left out. How the source made its calls: active means survival T/C of 150% or more; inactive means T/C below 125% in these data.
System: BDF1 mice, B16 melanoma ip, median survival T/C
Test: NCI In Vivo Anticancer Drug Screen. Data for tumor model B16 Melanoma (intraperitoneal) in B6D2F1 (BDF1) mice
Conditions: endpoint: median survival time, higher = longer survival
Procedure: The antitumor activity of compounds was measured in mice bearing transplantable tumors. Survival or tumor size were measured and the results are expressed as the measurement made in the treated group (T) divided by the measurement made in the vehicle treated control group (C). The tumor model used in this assay is B16 Melanoma (intraperitoneal) in B6D2F1 (BDF1) mice

[1] = dose: 3.13 mg/kg/injection, schedule: Q01DX009 (ip), vehicle: saline
[2] = dose: 6.25 mg/kg/injection, schedule: Q01DX009 (ip), vehicle: saline
[3] = dose: 12.5 mg/kg/injection, schedule: Q01DX009 (ip), vehicle: saline
[4] = dose: 25.0 mg/kg/injection, schedule: Q01DX009 (ip), vehicle: saline
[5] = dose: 50.0 mg/kg/injection, schedule: Q01DX009 (ip), vehicle: saline with Tween-80
[6] = dose: 50.0 mg/kg/injection, schedule: Q01DX009 (ip), vehicle: carboxymethylcellulose (CMC)
[7] = dose: 100.0 mg/kg/injection, schedule: Q01DX009 (ip), vehicle: Klucel (hydroxypropylcellulose) (HPC)
[8] = dose: 100.0 mg/kg/injection, schedule: Q01DX009 (ip), vehicle: carboxymethylcellulose (CMC)
[9] = dose: 6.25 mg/kg/injection, schedule: Q01DX009 (ip), vehicle: saline with Tween-80
[10] = dose: 12.5 mg/kg/injection, schedule: Q01DX009 (ip), vehicle: saline with Tween-80
[11] = dose: 25.0 mg/kg/injection, schedule: Q01DX009 (ip), vehicle: saline with Tween-80
[12] = dose: 50.0 mg/kg/injection, schedule: Q01DX009 (ip), vehicle: saline
[13] = dose: 100.0 mg/kg/injection, schedule: Q01DX009 (ip), vehicle: saline
[14] = dose: 25.0 mg/kg/injection, schedule: Q01DX009 (ip), vehicle: Klucel (hydroxypropylcellulose) (HPC)
[15] = dose: 50.0 mg/kg/injection, schedule: Q01DX009 (ip), vehicle: Klucel (hydroxypropylcellulose) (HPC)
[16] = dose: 200.0 mg/kg/injection, schedule: Q01DX009 (ip), vehicle: saline
[17] = dose: 200.0 mg/kg/injection, schedule: Q01DX009 (ip), vehicle: Klucel (hydroxypropylcellulose) (HPC)

Measured: T/C

CCC12C=CCN3CCC4(c5cc(C(c6cccnc6)c6cc7ccccc7n6C)c(OC)cc5N(C)C4C(O)(C(=O)OC)C1OC(C)=O)C32 (stereo unspecified)
inactive: dose: 0.06 mg/kg/injection, schedule: Q01DX009 (ip), vehicle: water 109 % of control | dose: 0.13 mg/kg/injection, schedule: Q01DX009 (ip), vehicle: water 103 % of control | dose: 0.25 mg/kg/injection, schedule: Q01DX009 (ip), vehicle: water 100 % of control | dose: 0.5 mg/kg/injection, schedule: Q01DX009 (ip), vehicle: water 113 % of control | dose: 1.0 mg/kg/injection, schedule: Q01DX009 (ip), vehicle: water 110 % of control | dose: 2.0 mg/kg/injection, schedule: Q01DX009 (ip), vehicle: other 104 % of control | dose: 2.0 mg/kg/injection, schedule: Q01DX009 (ip), vehicle: water 107 % of control | dose: 4.0 mg/kg/injection, schedule: Q01DX009 (ip), vehicle: other 95 % of control | dose: 8.0 mg/kg/injection, schedule: Q01DX009 (ip), vehicle: other 101 % of control | dose: 16.0 mg/kg/injection, schedule: Q01DX009 (ip), vehicle: other 105 % of control | dose: 32.0 mg/kg/injection, schedule: Q01DX009 (ip), vehicle: other 106 % of control

NC(N)=Nc1ccc(C(=O)Oc2ccc([N+](=O)[O-])cc2CN2CCCCC2)cc1
inactive: [1] 100 % of control | [2] 100 % of control

CC(=O)[S][Pb]([c]1ccccc1)([c]1ccccc1)[c]1ccccc1
inactive: dose: 0.5 mg/kg/injection, schedule: Q01DX009 (ip), vehicle: saline with Tween-80 97 % of control | dose: 1.0 mg/kg/injection, schedule: Q01DX009 (ip), vehicle: saline with Tween-80 93 % of control | dose: 2.0 mg/kg/injection, schedule: Q01DX009 (ip), vehicle: saline with Tween-80 92 % of control | dose: 4.0 mg/kg/injection, schedule: Q01DX009 (ip), vehicle: saline with Tween-80 101 % of control

CCCC1CCC(=C2C(=O)CCC2=O)O1 (stereo unspecified)
inactive: [1] 102 % of control | [2] 100 % of control | [3] 91 % of control | [4] 89 % of control

CCCCCCCCCCCCCCCCCCNC(=O)Nc1ccccc1CC
inactive: [5] 86 % of control

Cc1ccc(NC(=O)COc2ccc(Cl)cc2Cl)c([N+](=O)[O-])c1
inactive: dose: 25.0 mg/kg/injection, schedule: Q01DX009 (ip), vehicle: carboxymethylcellulose (CMC) 100 % of control | [6] 100 % of control | [7] 88 % of control | [8] 100 % of control

CC(C)(C)CC(C)(C)CC(C)(C)NCCCN
inactive: [9] 105 % of control | [10] 91 % of control | [11] 86 % of control

C/C(=N/O)[c-]1[c-][c-][c-][c-]1.[Fe].[c-]1[c-][c-][cH-][c-]1
inactive: dose: 3.13 mg/kg/injection, schedule: Q01DX009 (ip), vehicle: saline with Tween-80 91 % of control | dose: 3.13 mg/kg/injection, schedule: Q04DX003 (ip), vehicle: saline with Tween-80 98 % of control | [9] 100 % of control | dose: 6.25 mg/kg/injection, schedule: Q04DX003 (ip), vehicle: saline with Tween-80 96 % of control | [10] 97 % of control | dose: 12.5 mg/kg/injection, schedule: Q04DX003 (ip), vehicle: saline with Tween-80 94 % of control

NC1CC1c1ccccc1 (stereo unspecified)
inactive: dose: 3.12 mg/kg/injection, schedule: Q01DX009 (ip), vehicle: saline 91 % of control | [2] 101 % of control | [3] 102 % of control | [4] 113 % of control

CCN(CC)CCOC(=O)C(c1ccccc1)C1CCCCC1 (stereo unspecified)
inactive: [2] 99 % of control | [3] 108 % of control | [4] 108 % of control | [12] 118 % of control | [13] 110 % of control

NC(CCl)=NCC12CC3CC(CC(C3)C1)C2
inactive: dose: 3.0 mg/kg/injection, schedule: Q01DX009 (ip), vehicle: Klucel (hydroxypropylcellulose) (HPC) 110 % of control | dose: 3.12 mg/kg/injection, schedule: Q01DX009 (ip), vehicle: Klucel (hydroxypropylcellulose) (HPC) 100 % of control | dose: 6.0 mg/kg/injection, schedule: Q01DX009 (ip), vehicle: Klucel (hydroxypropylcellulose) (HPC) 100 % of control | dose: 12.0 mg/kg/injection, schedule: Q01DX009 (ip), vehicle: Klucel (hydroxypropylcellulose) (HPC) 107 % of control | dose: 24.0 mg/kg/injection, schedule: Q01DX009 (ip), vehicle: Klucel (hydroxypropylcellulose) (HPC) 102 % of control | dose: 48.0 mg/kg/injection, schedule: Q01DX009 (ip), vehicle: Klucel (hydroxypropylcellulose) (HPC) 120 % of control

c1ccc2c(c1)CCc1ccccc1C2NC1=NCCO1
inactive: [9] 104 % of control | [10] 100 % of control | [11] 92 % of control

O=[N+]([O-])c1cc(C(F)(F)F)ccc1F
inactive: dose: 12.5 mg/kg/injection, schedule: Q01DX009 (ip), vehicle: Klucel (hydroxypropylcellulose) (HPC) 101 % of control | [14] 109 % of control | [15] 109 % of control | [7] 108 % of control

CCN(CC)CCCCNc1ccc(NCCCCN(CC)CC)c2c1C(=O)c1ccccc1C2=O
inactive: [11] 105 % of control | [5] 99 % of control

Cc1cccc(NC(=O)CCl)c1
inactive: [6] 109 % of control | [8] 101 % of control

OCC12COCN1COC2
inactive: [3] 117 % of control | [4] 119 % of control | [12] 111 % of control | [13] 117 % of control | [16] 119 % of control

CCN=C=NCCCN(C)C
inactive: dose: 10.0 mg/kg/injection, schedule: Q01DX009 (ip), vehicle: saline 92 % of control | dose: 20.0 mg/kg/injection, schedule: Q01DX009 (ip), vehicle: saline 92 % of control | dose: 40.0 mg/kg/injection, schedule: Q01DX009 (ip), vehicle: saline 97 % of control | dose: 80.0 mg/kg/injection, schedule: Q01DX009 (ip), vehicle: saline 94 % of control

O=C(O)c1ccc(SSc2ccc(C(=O)O)cn2)nc1
inactive: [7] 88 % of control | dose: 100.0 mg/kg/injection, schedule: Q04DX003 (ip), vehicle: Klucel (hydroxypropylcellulose) (HPC) 93 % of control | [17] 100 % of control | dose: 200.0 mg/kg/injection, schedule: Q04DX003 (ip), vehicle: Klucel (hydroxypropylcellulose) (HPC) 97 % of control | dose: 400.0 mg/kg/injection, schedule: Q01DX009 (ip), vehicle: Klucel (hydroxypropylcellulose) (HPC) 88 % of control | dose: 400.0 mg/kg/injection, schedule: Q04DX003 (ip), vehicle: Klucel (hydroxypropylcellulose) (HPC) 90 % of control

O=C1c2ccccc2C(=O)N1C[P+](c1ccccc1)(c1ccccc1)c1ccccc1
inactive: dose: 6.25 mg/kg/injection, schedule: Q01DX009 (ip), vehicle: water 117 % of control | dose: 12.5 mg/kg/injection, schedule: Q01DX009 (ip), vehicle: water 112 % of control | dose: 25.0 mg/kg/injection, schedule: Q01DX009 (ip), vehicle: water 123 % of control

CC(C)CC(Br)C(=O)NCC(=O)O (stereo unspecified)
inactive: [11] 95 % of control | [5] 95 % of control

NC(=O)c1ncn(C2OC(CO)C(O)C2O)c1O (stereo unspecified)
inactive: [14] 104 % of control | [15] 114 % of control | [7] 109 % of control | [17] 111 % of control

CCCN1COC(OCC)C(C)(C)C1 (stereo unspecified)
inactive: [11] 104 % of control | [5] 100 % of control | dose: 100.0 mg/kg/injection, schedule: Q01DX009 (ip), vehicle: saline with Tween-80 98 % of control | dose: 200.0 mg/kg/injection, schedule: Q01DX009 (ip), vehicle: saline with Tween-80 100 % of control

CCC(C)CC(=O)O (stereo unspecified)
inactive: [13] 97 % of control | [16] 97 % of control | dose: 400.0 mg/kg/injection, schedule: Q01DX009 (ip), vehicle: saline 93 % of control

Clc1ccc2c(c1)/C(=C/c1ccccc1Cl)c1cc(Cl)cc(Cl)c1-2
inactive: [9] 90 % of control | [10] 88 % of control

c1cc[c]([Pb]([S]c2nc3ccccc3[nH]2)([c]2ccccc2)[c]2ccccc2)cc1
inactive: dose: 0.75 mg/kg/injection, schedule: Q01DX009 (ip), vehicle: Klucel (hydroxypropylcellulose) (HPC) 100 % of control | dose: 1.5 mg/kg/injection, schedule: Q01DX009 (ip), vehicle: Klucel (hydroxypropylcellulose) (HPC) 94 % of control

From PubChem BioAssay AID192 (DTP/NCI, 2004)
